Molecules are shown by their SMILES. The source made the active and inactive calls. The calls are words filed in the database; no cut-off is given here.

Assay [1] can be described thus: Binding affinity to telo24 G-quadruplex DNA (unknown origin) assessed as compound:telo24 complex formation at ratio of 2:1 after 14 hrs by electrophoresis mobility shift assay.
Assay [2] in a line: Stabilization of telo96 G-quadruplex DNA (unknown origin) assessed as melting temperature at 16 eq. by spectropolarimeter analysis in presence of KCl (reference value: 55 degC).
The nature of assay [3]: Stabilization of telo72 G-quadruplex DNA (unknown origin) assessed as melting temperature at 12 eq. by spectropolarimeter analysis in presence of KCl (reference value: 55 degC).
Assay [4] is described as follows: Stabilization of telo48 G-quadruplex DNA (unknown origin) assessed as melting temperature at 8 eq. by spectropolarimeter analysis in presence of KCl (Rvb= 57 degC).
Assay [5] in a line: Stabilization of telo24 G-quadruplex DNA (unknown origin) assessed as melting temperature at 4 eq. by spectropolarimeter analysis in presence of KCl (reference value: 59 degC).
Assay [6] in a line: Binding affinity to telo96 G-quadruplex DNA (unknown origin) assessed as change of topology from hybrid-type to anti-parallel form by CD spectrometry in presence of KCl.
A short description of assay [7]: Binding affinity to telo72 G-quadruplex DNA (unknown origin) assessed as change of topology from hybrid-type to anti-parallel form by CD spectrometry in presence of KCl.
Assay [8] is described as follows: Binding affinity to telo48 G-quadruplex DNA (unknown origin) assessed as change of topology from hybrid-type to anti-parallel form by CD spectrometry in presence of KCl.
Assay [9] is described as follows: Binding affinity to telo24 G-quadruplex DNA (unknown origin) assessed as change of topology from hybrid-type to anti-parallel form by CD spectrometry in presence of KCl.
A short description of assay [10]: Binding affinity to telo96 G-quadruplex DNA (unknown origin) assessed as appearance of new bands with longer migration distances after 14 hrs by electrophoresis mobility shift assay.
A short description of assay [11]: Binding affinity to telo72 G-quadruplex DNA (unknown origin) assessed as appearance of new bands with longer migration distances after 14 hrs by electrophoresis mobility shift assay.
Assay [12] can be described thus: Binding affinity to telo48 G-quadruplex DNA (unknown origin) assessed as appearance of new bands with longer migration distances after 14 hrs by electrophoresis mobility shift assay.
Assay [13] in a line: Binding affinity to telo24 G-quadruplex DNA (unknown origin) assessed as appearance of new bands with longer migration distances after 14 hrs by electrophoresis mobility shift assay.

For `NCCCC[C@@H]1NC(=O)c2coc(n2)-c2coc(n2)-c2coc(n2)[C@H](CCCCN)NC(=O)c2coc(n2)-c2coc(n2)-c2coc1n2`, the outcome in assay [1], in assay [6], in assay [7], in [8], in assay [9] and in assay [10] was Active. The outcome in assay [11], in assay [12] and in assay [13] was Active. For the same compound, the Tm in assay [2] came to 70 °C; in assay [3], 73 °C; in assay [4], 76 °C; in [5] it was 75 °C.

(Values after ChEMBL document CHEMBL3217495, “Interaction of long telomeric DNAs with macrocyclic hexaoxazole as a G-quadruplex ligand” (Medchemcomm, 2013).)
